# Source: PubChem BioAssay (NCI)
#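 GI50 is the concentration that inhibits growth by half. At the TGI there is no net growth.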
# Columns and labels:
# Experiment in all cases: growth of human tumour cells (NCI), 384-well format
# [1] = system: HL-60(TB) leukemia
# [2] = system: UACC-62 melanoma
# [3] = system: SF-268 CNS
# [4] = system: BT-549 breast
# [5] = system: SW-620 colon
# [6] = system: HOP-62 NSCLC
# [7] = system: KM12 colon
# [8] = system: A498 renal
# [9] = system: SK-MEL-2 melanoma
# [10] = system: M14 melanoma
# [11] = system: HT29 colon
# [12] = system: LOX IMVI melanoma
# [13] = system: RXF 393 renal
# [14] = system: ACHN renal
# [15] = system: SK-MEL-28 melanoma
# [16] = system: HCT-116 colon
# [17] = system: A549 NSCLC
# [18] = system: OVCAR-4 ovarian
# [19] = system: NCI-H460 NSCLC
# [20] = system: COLO 205 colon
# [21] = system: SNB-75 CNS
# [22] = system: MALME-3M melanoma
# [23] = system: HCC-2998 colon
# [24] = system: NCI-H522 lung
# [25] = system: SNB-19 CNS
# [26] = system: OVCAR-8 ovarian
# [27] = system: PC-3 prostate
# [28] = system: NCI-H23 lung
# [29] = system: MDA-MB-435 melanoma
# [30] = system: HOP-92 NSCLC
# [31] = system: SK-MEL-5 melanoma
# [32] = system: NCI/ADR-RES ovarian
# [33] = system: U251 glioblastoma
# [34] = system: OVCAR-3 ovarian
# [35] = system: NCI-H226 lung
# [36] = system: SN12C renal
# [37] = system: RPMI-8226 leukemia
# [38] = system: TK-10 renal
# [39] = system: DU-145 prostate
# [40] = system: EKVX NSCLC
# [41] = system: NCI-H322M lung
# [42] = system: SR leukemia
# [43] = system: MDA-MB-231 breast
# [44] = system: SF-539 CNS
# [45] = system: MCF7 breast
# [46] = system: OVCAR-5 ovarian
# [47] = system: SK-OV-3 ovarian
structure (smiles),measurement,setting,value
CC(=O)N1CC(F)(F)c2c(Sc3ncc(N4CCC5(CC4)COC[C@H]5N)nc3N)cccc21,GI50,[1],10 µM
same,TGI,[1],21.6 µM
same,GI50,[2],12.5 µM
same,TGI,[2],25.6 µM
same,GI50,[3],14.4 µM
same,TGI,[3],48.7 µM
same,GI50,[4],4.68 µM
same,TGI,[4],22.1 µM
same,GI50,[5],11.5 µM
same,TGI,[5],23.9 µM
same,GI50,[6],13.7 µM
same,TGI,[6],30.9 µM
same,GI50,[7],2.97 µM
same,TGI,[7],13.5 µM
same,GI50,[8],2.75 µM
same,TGI,[8],20.8 µM
same,GI50,[9],16.2 µM
same,TGI,[9],30.3 µM
same,GI50,[10],10.4 µM
same,TGI,[10],22.4 µM
same,GI50,[11],3.75 µM
same,TGI,[11],12.7 µM
same,GI50,[12],12.4 µM
same,TGI,[12],25 µM
same,GI50,[13],2.22 µM
same,TGI,[13],8.72 µM
same,GI50,[14],6.61 µM
same,TGI,[14],27.1 µM
same,GI50,[15],13.1 µM
same,TGI,[15],26.2 µM
same,GI50,[16],16.2 µM
same,TGI,[16],30 µM
same,GI50,[17],14.1 µM
same,TGI,[17],35.2 µM
same,GI50,[18],9.78 µM
same,TGI,[18],35.9 µM
same,GI50,[19],18.6 µM
same,TGI,[19],34.6 µM
same,GI50,[20],16.6 µM
same,TGI,[20],32 µM
same,GI50,[21],5.83 µM
same,TGI,[21],29.1 µM
same,GI50,[22],8.55 µM
same,TGI,[22],20.8 µM
same,GI50,[23],17.3 µM
same,TGI,[23],32.1 µM
same,GI50,[24],1.56 µM
same,TGI,[24],14.5 µM
same,GI50,[25],13.6 µM
same,TGI,[25],41.7 µM
same,GI50,[26],11.9 µM
same,TGI,[26],30.8 µM
same,GI50,[27],13.4 µM
same,TGI,[27],48.6 µM
same,GI50,[28],2.06 µM
same,TGI,[28],15.2 µM
same,GI50,[29],29.1 µM
same,TGI,[29],91.7 µM
same,GI50,[30],2.17 µM
same,TGI,[30],14.2 µM
same,GI50,[31],15.7 µM
same,TGI,[31],29.2 µM
same,GI50,[32],16.3 µM
same,TGI,[32],56.8 µM
same,GI50,[33],12.7 µM
same,TGI,[33],26.6 µM
same,GI50,[34],14.1 µM
same,TGI,[34],30.7 µM
same,GI50,[35],2.48 µM
same,TGI,[35],41.9 µM
same,GI50,[36],11.2 µM
same,TGI,[36],50.9 µM
same,GI50,[37],3.87 µM
same,TGI,[37],15.5 µM
same,GI50,[38],4.9 µM
same,TGI,[38],19.2 µM
same,GI50,[39],19.1 µM
same,TGI,[39],63.1 µM
same,GI50,[40],6.02 µM
same,TGI,[40],43.1 µM
same,GI50,[41],2.08 µM
same,TGI,[41],27.7 µM
same,GI50,[42],2.35 µM
same,TGI,[42],6.03 µM
same,GI50,[43],15.3 µM
same,TGI,[43],41.4 µM
same,GI50,[44],8.31 µM
same,TGI,[44],21.1 µM
same,GI50,[45],0.0453 µM
same,TGI,[45],11.4 µM
same,GI50,[46],18.1 µM
same,TGI,[46],57.3 µM
same,GI50,[47],4.82 µM
same,TGI,[47],19.1 µM
